Values joined by “and” are separate entries in the source; they are usually repeats but may differ in a detail not shown here. Equal entries are not always repeated. “Also recorded” adds a separate entry of the source. Where two headings read alike, the source gives them in different places.
Tests used:
FabH [1] = molecular target: T1, FabH (Escherichia coli, UniProt P0A6R0); test: continuous UV-Vis assay for the production of acetoacetyl-CoA; format: biochemical; settings: for effect on FabH activity with acetyl-CoA and malonyl-CoA as substrates: UV-Vis assays
T1 sequence (P0A6R0 whole entry): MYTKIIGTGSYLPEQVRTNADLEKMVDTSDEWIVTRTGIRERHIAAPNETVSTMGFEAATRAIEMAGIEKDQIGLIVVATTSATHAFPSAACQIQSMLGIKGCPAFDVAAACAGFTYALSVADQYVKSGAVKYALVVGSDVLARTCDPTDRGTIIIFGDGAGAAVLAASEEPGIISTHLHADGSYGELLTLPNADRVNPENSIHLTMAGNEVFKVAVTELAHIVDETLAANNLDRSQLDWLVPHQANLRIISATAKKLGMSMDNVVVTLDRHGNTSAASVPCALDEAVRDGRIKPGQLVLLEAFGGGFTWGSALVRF

FabH C112Q = format: biochemical, Escherichia coli; settings: for Initial rate of hydrolysis to CoA or oxa(dethia)CoA / Initial rate, malonyl-CoA → acetyl-CoA/acetoacetyl-CoA: FabH C112Q, 10 μM enzyme; for stability with the FabH C112Q mutant: over 24 hours, 10 μM FabH C112Q
[2] = non-enzymatic stability/hydrolysis in buffer followed by HPLC; format: physicochemical; settings: for Non-enzymatic hydrolysis rate: pH 6 and 7
E. coli FabH = settings: for Initial rate of hydrolysis to CoA or oxa(dethia)CoA / Initial rate, malonyl-CoA → acetyl-CoA/acetoacetyl-CoA: FabH wt, 10 μM FabH; for activating potential for FabH decarboxylation of malonyl-CoA to acetoacetyl-CoA: FabH incubated with 125 μM analog then 250 μM malonyl-CoA, HPLC progress curves; for time to reaction completion: FabH
FabH [3] = molecular target: T1, FabH; settings: cited from earlier work
citrate synthase = settings: cited from earlier work
phosphotransacetylase = settings: cited from earlier work
[4] = test system: fluoroacetyl-CoA hydrolase; settings: cited from earlier work
[5] = competition with malonyl-CoA binding assumed, pH 8.0, 50 mM Mg2+
[6] = pH 6, ~250 μM substrate or analog
[7] = pH 7, ~250 μM substrate or analog
[8] = pH 8, ~250 μM substrate or analog
[9] = varying malonyl-CoA, acetyl-CoA at 125 μM, substrate inhibition model

In the case of `CC(C)(COP(=O)(O)OP(=O)(O)OC[C@H]1O[C@@H](n2cnc3c(N)ncnc32)[C@H](O)[C@@H]1OP(=O)(O)O)[C@@H](O)C(=O)NCCC(=O)NCCS` [CoA], the Ki (FabH [1]; [5]) is reported as 150 ± 70 µM.

In the case of `CC(=O)SCCNC(=O)CCNC(=O)[C@H](O)C(C)(C)COP(=O)(O)OP(=O)(O)OC[C@H]1O[C@@H](n2cnc3c(N)ncnc32)[C@H](O)[C@@H]1OP(=O)(O)O` [acetyl-CoA], the “Initial rate of hydrolysis to CoA or oxa(dethia)CoA” value (“Initial rate of hydrolysis” below) (FabH C112Q; [6]) is reported as 0.0005 ± 0.0001 min⁻¹, the “Initial rate of hydrolysis” value (FabH C112Q; [7]) is reported as 0.0006 ± 0.0001 min⁻¹ and the “Initial rate of hydrolysis” value (FabH C112Q; [8]) is reported as 0.0030 ± 0.0001 min⁻¹. The Km (FabH [1]; read-out: apparent Km, varying acetyl-CoA with 125 μM malonyl-CoA) was 0.3 ± 0.1 µM, the Non-enzymatic hydrolysis rate [2] was ~ 0.0004 min^−1 and the “Non-enzymatic hydrolysis rate at pH 8 relative to pH 6 and 7” value [2] was ~ 10 times higher. The “Initial rate of hydrolysis” value (E. coli FabH; [6]) was 0.0004 ± 0.0001 min⁻¹, the “Initial rate of hydrolysis” value (E. coli FabH; [7]) was 0.0010 ± 0.0001 min⁻¹ and the “Initial rate of hydrolysis” value (E. coli FabH; [8]) was 0.0038 ± 0.0002 min⁻¹. For the same compound, the transthiolation rate (FabH [3]) was 0.05 s⁻¹, the Km (FabH [3]; read-out: apparent KM, pH 7.0, malonyl-S-ACP as acceptor ref 32, 35) was 40 µM and the Km (citrate synthase) was 8.5 µM. For the same compound, the Km (phosphotransacetylase) was 210 µM.

With `CC(=O)OCCNC(=O)CCNC(=O)[C@H](O)C(C)(C)COP(=O)(O)OP(=O)(O)OC[C@H]1O[C@@H](n2cnc3c(N)ncnc32)[C@H](O)[C@@H]1OP(=O)(O)O` [compound 1, acetyl-oxa(dethia)CoA] the “Initial rate of hydrolysis” value (FabH C112Q; [8]) was ~ 0.001 min^−1, the “effect on FabH activity with acetyl-CoA and malonyl-CoA as substrates” value (FabH [1]) was “slightly activating; also recorded: did not find inhibition; also recorded: a couple percent activation” and the Ki (FabH [1]; [5]) was “weak activation”. The “activating potential for FabH decarboxylation of malonyl-CoA to acetoacetyl-CoA” value (E. coli FabH) was “not strong activators” and the “Initial rate of hydrolysis” value (E. coli FabH; [8]) was ~ 0.003 min^−1.

With `CC(=O)NCCNC(=O)CCNC(=O)[C@H](O)C(C)(C)COP(=O)(O)OP(=O)(O)OC[C@H]1O[C@@H](n2cnc3c(N)ncnc32)[C@H](O)[C@@H]1OP(=O)(O)O` [compound 2, acetyl-aza(dethia)CoA] the “effect on FabH activity with acetyl-CoA and malonyl-CoA as substrates” value (FabH [1]) was “moderate inhibitor”, the Ki (FabH [1]; competition with malonyl-CoA binding assumed) was 800 µM and the Ki (FabH [1]; [5]) was 800 ± 100 µM. The “activating potential for FabH decarboxylation of malonyl-CoA to acetoacetyl-CoA” value (E. coli FabH) was “not strong activators”, the Ki (citrate synthase) was 1.6 µM and the Ki (phosphotransacetylase) was 130 µM.

In the case of `CC(C)(COP(=O)(O)OP(=O)(O)OC[C@H]1O[C@@H](n2cnc3c(N)ncnc32)[C@H](O)[C@@H]1OP(=O)(O)O)[C@@H](O)C(=O)NCCC(=O)NCCOC(=O)CC(=O)O` [compound 3, malonyl-oxa(dethia)CoA], the “Decarboxylation by C112Q mutant” value (FabH C112Q) is reported as “not detected”, the “Initial rate of hydrolysis” value (FabH C112Q; [8]) is reported as ~ 0.001 min^−1 and the “stability with the FabH C112Q mutant” value (FabH C112Q) is reported as “relatively unreactive”. The Ki (FabH [1]; [5]) was 800 ± 400 µM, the “Decarboxylation by FabH” value (E. coli FabH) was “not detected” and the “Initial rate of hydrolysis” value (E. coli FabH; [8]) was ~ 0.001 min^−1.

With `CC(C)(COP(=O)(O)OP(=O)(O)OC[C@H]1O[C@@H](n2cnc3c(N)ncnc32)[C@H](O)[C@@H]1OP(=O)(O)O)[C@@H](O)C(=O)NCCC(=O)NCCNC(=O)CC(=O)O` [compound 4, malonyl-aza(dethia)CoA] the “stability with the FabH C112Q mutant” value (FabH C112Q) was “completely stable” and the Ki (FabH [1]; [5]) was 700 ± 300 µM.

Work on `CC(C)(COP(=O)(O)OP(=O)(O)OC[C@H]1O[C@@H](n2cnc3c(N)ncnc32)[C@H](O)[C@@H]1OP(=O)(O)O)[C@@H](O)C(=O)NCCC(=O)NCCO` [compound 5, oxa(dethia)CoA] yielded a Ki (FabH [1]; [5]) of 400 ± 200 µM.

With `CC(C)(COP(=O)(O)OP(=O)(O)OC[C@H]1O[C@@H](n2cnc3c(N)ncnc32)[C@H](O)[C@@H]1OP(=O)(O)O)[C@@H](O)C(=O)NCCC(=O)NCCN` [compound 6, aza(dethia)CoA] the Ki (FabH [1]; [5]) was 900 ± 400 µM.

In the case of `CC(C)(COP(=O)(O)OP(=O)(O)OC[C@H]1O[C@@H](n2cnc3c(N)ncnc32)[C@H](O)[C@@H]1OP(=O)(O)O)[C@@H](O)C(=O)NCCC(=O)NCCSC(=O)CF` [fluoroacetyl-CoA], the Km [4] is listed as 8 µM.

For `CC(C)(COP(=O)(O)OP(=O)(O)OCC1OC(n2cnc3c(N)ncnc32)C(O)C1OP(=O)(O)O)C(O)C(=O)NCCC(=O)NCCNC(=O)CF` (stereo not drawn) [fluoroacetyl-aza(dethia)CoA], the Kd [4] is given as 1700 µM.

In the case of `CC(C)(COP(=O)(O)OP(=O)(O)OC[C@H]1O[C@@H](n2cnc3c(N)ncnc32)[C@H](O)[C@@H]1OP(=O)(O)O)[C@@H](O)C(=O)NCCC(=O)NCCOC(=O)CF` [fluoroacetyl-oxa(dethia)CoA], the Kd [4] is listed as 90 µM.

With `CC(C)(COP(=O)(O)OP(=O)(O)OC[C@H]1O[C@@H](n2cnc3c(N)ncnc32)[C@H](O)[C@@H]1OP(=O)(O)O)[C@@H](O)C(=O)NCCC(=O)NCCSC(=O)CC(=O)O` [malonyl-CoA] the “FabH C112Q decarboxylation relative to activated wild-type in the absence of acetyl-CoA” value (FabH C112Q) was 5 times faster, the “Initial rate of hydrolysis” value (FabH C112Q; [6]) was 0.0005 ± 0.0001 min⁻¹ and the “Initial rate, malonyl-CoA → acetyl-CoA/acetoacetyl-CoA” value (FabH C112Q; pH 6, ~250 μM substrate) was 0.0060 ± 0.0006 min⁻¹. The “Initial rate of hydrolysis” value (FabH C112Q; [7]) was 0.0007 ± 0.0001 min⁻¹, the “Initial rate, malonyl-CoA → acetyl-CoA/acetoacetyl-CoA” value (FabH C112Q; pH 7, ~250 μM substrate) was 0.18 ± 0.01 min⁻¹ and the “Initial rate of hydrolysis” value (FabH C112Q; [8]) was 0.0032 ± 0.0005 min⁻¹. For the same compound, the “Initial rate, malonyl-CoA → acetyl-CoA/acetoacetyl-CoA” value (FabH C112Q; pH 8, ~250 μM substrate) was 0.20 ± 0.02 min⁻¹, the Ki (FabH [1]; read-out: Ki (substrate inhibition), varying malonyl-CoA, acetyl-CoA at 125 μM, substrate inhibition model) was 1900 ± 600 µM and the Km (FabH [1]; [9]) was 2500 µM and ~2500 µM. For the same compound, the kcat (FabH [1]; [9]) was 0.0983 ± 0.0233 s⁻¹, the Non-enzymatic hydrolysis rate [2] was ~ 0.0004 min^−1 and the “Non-enzymatic hydrolysis rate at pH 8 relative to pH 6 and 7” value [2] was ~ 10 times higher. The “Initial rate, malonyl-CoA → acetyl-CoA/acetoacetyl-CoA” value (E. coli FabH; pH 7, ~250 μM substrate) was “biphasic”, the “Initial rate, malonyl-CoA → acetyl-CoA/acetoacetyl-CoA” value (E. coli FabH; pH 8, ~250 μM substrate, 25 μM acetyl-CoA to alleviate lag phase, value is for acetoacetyl-CoA appearance) was 0.043 ± 0.001^‡ min^−1 and the “time to reaction completion” value (E. coli FabH; malonyl-CoA with priming acetyl-CoA (10% of malonyl-CoA)) was “about 250 min”. For the same compound, the “time to reaction completion” value (E. coli FabH; malonyl-CoA without priming acetyl-CoA (Figure 2J)) was 620 min.
